Read-outs that look alike come from different tables or passages of the source.
Legend:
[1] = tested on: human C-Myc transcription in MV-4-11 cells; experiment: Transcription of human C-Myc in human leukemic MV-4-11 cells (QuantiGene 2.0); type: cell-based; settings: inhibition of C-Myc mRNA, 4 hours treatment, read-out: IC50 MV-4-11 Cell
Protocol: The effect of compounds on transcription of human C-Myc gene is monitored in human B-myelomonocytic leukemia cell line MV-4-11 (from American Type Culture Collection (ATCC), Manassas, Va., USA) using QuantiGene 2.0 assay kit (Affymetrix, Santa Clara, Calif., USA).
Typically, 8,000 MV-4-11 cells are plated in sterile 96-well plates (Costar #3598 from Fisher Scientific Canada, Ottawa, Ontario, Canada) in Iscove's medium supplemented with 10% fetal bovine serum, glutamine (2 mM), and penicillin (100 I.U.) and streptomycin (100 μg/mL) (all from Wisent Inc., St. Bruno, Quebec, Canada). Compounds are dissolved in DMSO at 30 mM. A series of 1:3 dilutions are first made in DMSO, and further 1:100 dilutions are made in serum-containing cell culture media. The final concentration of DMSO is 0.1% in cell culture media. After cells are treated with various concentrations of test compound for 4 hours, cells are lysed using Quantigene 2.0 sample processing kit (# QS0100). C-Myc mRNA is detected using a QuantiGene 2.0 assay kit (# QS0009) with gene-specific probe to human C-Myc (# SA-50182) following the manufacturer's recommendations. Luminescene signals are read on Flexstation II microplate reader (Molecular Devices, Sunnyvale, Calif., USA).

BRD4(BD1) = BRD4(BD1) (Homo sapiens (Human), UniProt O60885); experiment: In vitro bromodomain inhibition assay (AlphaLISA); type: binding; settings: His-tagged BRD4 BD1 200 nM, biotinylated H4-tetraacetyl peptide 200 nM
Protocol: To measure activity of bromodomain inhibitors, a His-epitope tagged BRD4 BD149-170 is purchased from BPS Bioscience. BRD4 binding and inhibition is assessed by monitoring the engagement of biotinylated H4-tetraacetyl peptide (H4K5/8/12/16; AnaSpec #64989-025) with the target using the AlphaLISA technology (Perkin-Elmer). Specifically, in a 384 well OptiPlate, BRD4(BD1) (200 nM final) is pre-incubated with either DMSO (final 1.0% DMSO) or a compound dilution series in DMSO. All reagents are diluted in assay buffer containing 50 mM HEPES (pH 7.4), 100 mM NaCl, 0.1% (w/v) BSA, and 0.05% (w/v) CHAPS. After a 30 minute incubation at rt, H4 peptide is added (200 nM final) and the reaction is incubated an additional 30 minutes at rt. Alpha streptavidin donor beads and AlphaLISA nickel chelate acceptor beads are then added to a final concentration of 10 μg/mL each. After one hour, equilibration plates are read on an Envision instrument and IC50s calculated using a four parameter non-linear curve fit (results are shown in Table 1).

| Compound | IC50 ([1]; Homo sapiens, MV4-11, 4 h) [nM] | IC50 (BRD4(BD1)) [nM] | IC50 [1] [nM] |
| --- | --- | --- | --- |
| Cc1cc(-c2ccc3nc(C4CCOCC4)n(CCOC(F)(F)F)c3c2)cn(C)c1=O [Compound 1, 1,3-dimethyl-5-[2-tetrahydropyran-4-yl-3-[2-(trifluoromethoxy)ethyl]benzimidazol-5-yl]pyridin-2-one] | 76 | 140 | – |
| Cc1cc(-c2ccc3nc(C4CC4)n(CCOC(F)(F)F)c3c2)cn(C)c1=O [Compound 2, 5-[2-cyclopropyl-3-[2-(trifluoromethoxy)ethyl]benzimidazol-5-yl]-1,3-dimethylpyridin-2-one] | 86 | 190 | – |
| Cc1cc(-c2ccc3ncn(CCOC(F)(F)F)c3c2)cn(C)c1=O [Compound 3, 1,3-dimethyl-5-[3-[2-(trifluoromethoxy)ethyl]benzimidazol-5-yl]pyridin-2-one] | 95 | 310 | – |
| CC(=O)N1CCC(c2nc3ccc(-c4cc(C)c(=O)n(C)c4)cc3n2CCOC(F)(F)F)CC1 [Compound 4, 5-[2-(1-acetyl-4-piperidyl)-3-[2-(trifluoromethoxy)ethyl]benzimidazol-5-yl]-1,3-dimethylpyridin-2-one] | 89 | 130 | – |
| Cc1cc(-c2ccc3nc(C)n(CCOC(F)(F)F)c3c2)cn(C)c1=O [Compound 5, 1,3-dimethyl-5-[2-methyl-3-[2-(trifluoromethoxy)ethyl]benzimidazol-5-yl]pyridin-2-one] | 230 | 190 | – |
| Cc1cc(-c2ccc3nc(C4CCC4)n(CCOC(F)(F)F)c3c2)cn(C)c1=O [Compound 6, 5-[2-cyclobutyl-3-[2-(trifluoromethoxy)ethyl]benzimidazol-5-yl]-1,3-dimethyl-pyridin-2-one] | 56 | 91 | – |
| COCCn1c(C2CC2)nc2ccc(-c3cc(C)c(=O)n(C)c3)cc21 [Compound 7, 5-[2-cyclopropyl-3-(2-methoxyethyl)benzimidazol-5-yl]-1,3-dimethyl-pyridin-2-one] | 520 | 280 | – |
| COCCn1c(C)nc2ccc(-c3cc(C)c(=O)n(C)c3)cc21 [Compound 8, 5-[3-(2-methoxyethyl)-2-methyl-benzimidazol-5-yl]-1,3-dimethylpyridin-2-one] | 790 | 210 | – |
| COCCn1c(C2CCOCC2)nc2ccc(-c3cc(C)c(=O)n(C)c3)cc21 [Compound 9, 5-[3-(2-methoxyethyl)-2-tetrahydropyran-4-yl-benzimidazol-5-yl]-1,3-dimethyl pyridin-2-one] | 250 | 220 | – |
| COC[C@@H](C)n1c(C2CCOCC2)nc2ccc(-c3cc(C)c(=O)n(C)c3)cc21 [Compound 10, 5-[3-[(1R)-2-methoxy-1-methyl-ethyl]-2-tetrahydropyran-4-yl-benzimidazol-5-yl]-1,3-dimethyl-pyridin-2-one] | 62 | 99 | – |
| COC[C@@H](C)n1c(C)nc2ccc(-c3cc(C)c(=O)n(C)c3)cc21 [Compound 11, 5-[3-[(1R)-2-methoxy-1-methyl-ethyl]-2-methyl-benzimidazol-5-yl]-1,3-dimethyl pyridin-2-one] | 170 | 98 | – |
| COC[C@@H](C)n1cnc2ccc(-c3cc(C)c(=O)n(C)c3)cc21 [Compound 12, 5-[3-[(1R)-2-methoxy-1-methyl-ethyl]benzimidazol-5-yl]-1,3-dimethyl-pyridin-2-one] | 550 | 330 | – |
| Cn1cc(-c2ccc3nc(C4CC4)n(CCOC(F)(F)F)c3c2)cc(C(F)(F)F)c1=O [Compound 13, 5-[2-cyclopropyl-3-[2-(trifluoromethoxy)ethyl]benzimidazol-5-yl]-1-methyl-3-(trifluoromethyl)pyridin-2-one] | 850 | 810 | – |
| COC[C@@H](C)n1c(C2CC2)nc2ccc(-c3cc(C)c(=O)n(C)c3)cc21 [Compound 15, 5-[2-cyclopropyl-3-[(1R)-2-methoxy-1-methylethyl]benzimidazol-5-yl]-1,3-dimethyl pyridin-2-one] | 240 | 100 | – |
| CO[C@H](C)Cn1c(C2CCC(F)(F)CC2)nc2ccc(-c3cc(C)c(=O)n(C)c3)cc21 [Compound 58, (R)-5-(2-(4,4-difluorocyclohexyl)-1-(2-methoxypropyl)-1H-benzo[d]imidazol-6-yl)-1,3-dimethylpyridin-2(1H)-one] | 160 | – | – |
| CO[C@@H](C)Cn1c(C2CCC(F)(F)CC2)nc2ccc(-c3cc(C)c(=O)n(C)c3)cc21 [Compound 59, (S)-5-(2-(4,4-difluorocyclohexyl)-1-(2-methoxypropyl)-1H-benzo[d]imidazol-6-yl)-1,3-dimethylpyridin-2(1H)-one] | 90 | – | – |
| CCOCCn1c(C2CCOCC2)nc2ccc(-c3cc(C)c(=O)n(C)c3)cc21 [Compound 60, 5-(1-(2-ethoxyethyl)-2-(tetrahydro-2H-pyran-4-yl)-1H-benzo[d]imidazol-6-yl)-1,3-dimethylpyridin-2(1H)-one] | 17 | – | – |
| CCOCCn1c(C2CCC(F)(F)CC2)nc2ccc(-c3cc(C)c(=O)n(C)c3)cc21 [Compound 61, 5-(2-(4,4-difluorocyclohexyl)-1-(2-ethoxyethyl)-1H-benzo[d]imidazol-6-yl)-1,3-dimethylpyridin-2(1H)-one] | 84 | – | – |
| COC1CC(c2nc3ccc(-c4cc(C)c(=O)n(C)c4)cc3n2CCOCC(F)(F)F)C1 (stereo not shown) [Compound 62, 5-[2-(3-methoxycyclobutyl)-1-(2-(2,2,2-trifluoroethoxy)ethyl)-1H-benzo[d]imidazol-6-yl]-1,3-dimethylpyridin-2(1H)-one] | 21 | – | – |
| COC1CC(c2nc3ccc(-c4cc(C)c(=O)n(C)c4)cc3n2CCOC(C)C)C1 (stereo not shown) [Compound 64, 5-[1-(2-isopropoxyethyl)-2-(3-methoxycyclobutyl)-1H-benzo[d]imidazol-6-yl]-1,3-dimethylpyridin-2(1H)-one] | – | – | 51 |
| COC1CC(c2nc3ccc(-c4cc(C)c(=O)n(C)c4)cc3n2CCOC(C)C)C1 (stereo not shown) [Compound 65, 5-[1-(2-isopropoxyethyl)-2-(3-methoxycyclobutyl)-1H-benzo[d]imidazol-6-yl]-1,3-dimethylpyridin-2(1H)-one] | – | – | 25 |
| Cc1cc(-c2ccc3nc(C4CCOCC4)n([C@H](C)COC(C)C)c3c2)cn(C)c1=O [Compound 66, (R)-5-(1-(1-isopropoxypropan-2-yl)-2-(tetrahydro-2H-pyran-4-yl)-1H-benzo[d]imidazol-6-yl)-1,3-dimethylpyridin-2(1H)-one] | 18 | – | – |
| Cc1cc(-c2ccc3nc(C4CCOCC4)n(C[C@H](C)OC(C)C)c3c2)cn(C)c1=O [Compound 67, (S)-5-(1-(2-isopropoxypropyl)-2-(tetrahydro-2H-pyran-4-yl)-1H-benzo[d]imidazol-6-yl)-1,3-dimethylpyridin-2(1H)-one] | 26 | – | – |

Source: patent US10703740B2, “Substituted benzimidazoles, their preparation and their use as pharmaceuticals” (NEOMED Institute, priority 2015, dated 2020)
